Experimental data taken from PubChem BioAssay AID1963862 (Molecular Pharmacology Branch, DTP, NCI, 2024).

System: KRAS patient-derived spheroids with HUVEC/MSC, viability
Assay: Anticancer human tumor 941728-121-R-J1-PDC patient-derived lung adenocarcinoma cell line growth inhibition [KRAS2]
Conditions: for viability, T/C: stronger effect = lower value
From the text: Multicellular complex tumor spheroid response to RAS pathway inhibitors in combination with a targeted agents in patient-derived cell lines with oncogenic KRAS variants from multiple cancer types
A high-throughput screen of multi-cell type tumor spheroids was designed to identify active combinations of targeted small molecules and KRAS pathway inhibitors. Complex spheroids include a stromal component modeled by human endothelial cells (HUVEC) and fibroblasts modeled by human mesenchymal stem cells (MSCs). The concentration ranges selected for each drug and investigational agent were based upon clinically achievable concentrations if the clinical Cmax of the agent was known.
Compounds. The drugs and investigational agents: BI-3406 (NSC825286), BAY-293 (NSC824723), batoprotafib (TNO155; NSC825523), sotorasib (AMG 510; NSC818433), MRTX1257 (NSC819558), elimusertib (BAY 1895344; NSC800525), molibresib (GSK525762; NSC774829), temuterkib (LY3214996; NSC803410), venetoclax (NSC766270), alisertib (NSC759677), olaparib (NSC753686), talazoparib (NSC767125), erdafitinib (NSC781556), ipatasertib (NSC767898), cabozantinib (NSC761068), nintedanib (NSC756659), abemaciclib (NSC768073), docetaxel (NSC628503), trametinib (NSC758246), and sapanisertib (NSC764658) were obtained from the National Cancer Institute (NCI) Developmental Therapeutics Program Chemical Repository. The FDA-approved anticancer drug set is available from the Developmental Therapeutics Program. […] The stock solutions were prepared in dimethyl sulfoxide (DMSO, Sigma-Aldrich, St. Louis, MO, cat. D2650) at 800-fold the tested concentration and stored at -70 degrees C prior to their use. All drugs and investigational agents were tested over a range starting from a high concentration at or near the clinical Cmax and decreasing in half-log increments. If the clinical Cmax for an agent had not been determined, the highest concentration tested was 10 microM.
Cell Culture. All cells were maintained in an incubator at 37 degrees C and 5% CO2 with 95% humidity. The PDC lines were cultured according to standard operating procedures established by the NCI PDMR (https://pdmr.cancer.gov/sops/default.htm). Briefly, all PDCs were thawed and cultured in Matrigel-coated flasks prepared with a working solution of 1X Ham's F-12 nutrient mix, without supplementation (Invitrogen, Waltham, MA, cat. 11765054), 100 U/mL penicillin-streptomycin (Invitrogen, cat. 15140122), and 2.5% Matrigel (Corning Inc., Corning, NY, cat. 354248) for the first three passages. All PDCs were cultured in complete DMEM/F-12 media containing advanced DMEM/F-12 (Invitrogen, cat. 12634028), 4.9% defined fetal bovine serum, heat inactivated (HyClone Laboratories Inc., Logan, UT, cat. SH30070.03HI), 389 ng/mL hydrocortisone (Sigma-Aldrich, cat. H4001), 9.7 ng/mL human EGF recombinant protein (Invitrogen, cat. PHG0313), 23.4 microg/mL adenine (Sigma-Aldrich, cat. A2786), 97.3 U/mL penicillin-streptomycin (Invitrogen, cat. 15140122), 1.9 mM L-glutamine (Invitrogen, cat. 25030081), and 9.7 microM Y-27632 dihydrochloride (Tocris Bioscience, Bristol, United Kingdom, cat. 1254). The PDCs were cultured in complete DMEM/F12 media without 9.7 microM Y-27632 dihydrochloride for at least two passages prior to the screen. The established cell line HOP-62 was cultured in RPMI 1640 medium, HEPES (Invitrogen, cat. 22400105) with 10% defined fetal bovine serum (HyClone Laboratories Inc., cat. SH30070.03) and 2 mM L-glutamine (Invitrogen, cat. 25030081). The pooled donor HUVEC were cultured in endothelial cell growth medium 2 (PromoCell, Heidelberg, Germany, cat. C-22011) and the hMSC were cultured in mesenchymal stem cell growth medium 2 (PromoCell, cat. C-28009). For all experiments, HUVEC and hMSC were used at passages </=5, while the malignant cell lines were used at passages </=15. […]

[1] = curve of first compound, second compound 0.1 µM
[2] = curve of first compound, second compound 0.316 µM
[3] = curve of first compound, second compound 1 µM
[4] = curve of first compound, second compound 3.16 µM
[5] = curve of first compound, second compound 10 µM
[6] = second compound 0.1 µM, first compound 0.01 µM
[7] = second compound 0.1 µM, first compound 0.0316 µM
[8] = second compound 0.1 µM, first compound 0.1 µM
[9] = second compound 0.1 µM, first compound 0.316 µM
[10] = second compound 0.1 µM, first compound 1 µM
[11] = second compound 0.1 µM, first compound 3.16 µM
[12] = second compound 0.316 µM, first compound 0.01 µM
[13] = second compound 0.316 µM, first compound 0.0316 µM
[14] = second compound 0.316 µM, first compound 0.1 µM
[15] = second compound 0.316 µM, first compound 0.316 µM
[16] = second compound 0.316 µM, first compound 1 µM
[17] = second compound 0.316 µM, first compound 3.16 µM
[18] = second compound 1 µM, first compound 0.01 µM
[19] = second compound 1 µM, first compound 0.0316 µM
[20] = second compound 1 µM, first compound 0.1 µM
[21] = second compound 1 µM, first compound 0.316 µM
[22] = second compound 1 µM, first compound 1 µM
[23] = second compound 1 µM, first compound 3.16 µM
[24] = second compound 3.16 µM, first compound 0.01 µM
[25] = second compound 3.16 µM, first compound 0.0316 µM
[26] = second compound 3.16 µM, first compound 0.1 µM
[27] = second compound 3.16 µM, first compound 0.316 µM
[28] = second compound 3.16 µM, first compound 1 µM
[29] = second compound 3.16 µM, first compound 3.16 µM
[30] = second compound 10 µM, first compound 0.01 µM
[31] = second compound 10 µM, first compound 0.0316 µM
[32] = second compound 10 µM, first compound 0.1 µM
[33] = second compound 10 µM, first compound 0.316 µM
[34] = second compound 10 µM, first compound 1 µM
[35] = second compound 10 µM, first compound 3.16 µM
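Also: spheroids exposed to agents for seven days before readout.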

SMILES	IC50 [1] [nM]	IC50 [2] [nM]	IC50 [3] [nM]	IC50 [4] [nM]	IC50 [5] [nM]	viability, T/C [7] [%]	viability, T/C [8] [%]	viability, T/C [9] [%]	viability, T/C [10] [%]	viability, T/C [11] [%]	viability, T/C [13] [%]	viability, T/C [14] [%]	viability, T/C [15] [%]	viability, T/C [16] [%]	viability, T/C [17] [%]	viability, T/C [19] [%]	viability, T/C [20] [%]	viability, T/C [21] [%]	viability, T/C [22] [%]	viability, T/C [23] [%]	also measured
CC1COCCN1c1cc(-c2ccnn2C)c2ccnc(-c3ccn[nH]3)c2n1 (centres undefined) + COc1cc2nc(C)nc(NC(C)c3cc(N)cc(C(F)(F)F)c3)c2cc1OC1CCOC1	25.8	30.7	14.5	< 10	< 10	49.5	39.9	33.9	26.8	20.3	49.5	36.8	27.2	21.9	23.6	42.7	32.9	27.9	22.5	18.6	viability, T/C [6]: 56%; viability, T/C [12]: 58.2%; viability, T/C [18]: 53.6%; viability, T/C [24]: 36.3%; viability, T/C [25]: 32%; viability, T/C [26]: 25.4%; viability, T/C [27]: 18.2%; viability, T/C [28]: 8.31%; viability, T/C [29]: 15.9%; viability, T/C [30]: 17.4%; viability, T/C [31]: 21.6%; viability, T/C [32]: 21.9%; viability, T/C [33]: 11.4%; viability, T/C [34]: 9.32%; viability, T/C [35]: 6.09%
CCNC(=O)CC1N=C(c2ccc(Cl)cc2)c2cc(OC)ccc2-n2c(C)nnc21 (centres undefined) + CC1OCC2(CCN(c3cnc(Sc4ccnc(N)c4Cl)c(N)n3)CC2)C1N	< 31.6	< 31.6	< 31.6	< 31.6	< 31.6	45.2	44	31.5	24.1	21	37.2	32.5	25.5	17.2	14.8	32.3	27.5	30.4	13.2	10.3	viability, T/C (second compound 0.1 µM, first compound 10 µM): 22.4%; viability, T/C (second compound 0.316 µM, first compound 10 µM): 16.2%; viability, T/C (second compound 1 µM, first compound 10 µM): 8.97%; viability, T/C [25]: 25.7%; viability, T/C [26]: 20.9%; viability, T/C [27]: 17.8%; viability, T/C [28]: 10.3%; viability, T/C [29]: 8.12%; viability, T/C (second compound 3.16 µM, first compound 10 µM): 6.43%; viability, T/C [31]: 22.3%; viability, T/C [32]: 19.1%; viability, T/C [33]: 12%; viability, T/C [34]: 6.42%; viability, T/C [35]: 4.77%; viability, T/C (second compound 10 µM, first compound 10 µM): 4.55%
CC1(C)CCC(CN2CCN(c3ccc(C(=O)NS(=O)(=O)c4ccc(NCC5CCOCC5)c([N+](=O)[O-])c4)c(Oc4cnc5[nH]ccc5c4)c3)CC2)=C(c2ccc(Cl)cc2)C1																					viability, T/C (compound 1 µM): 51.1% [middle of 5 runs]; viability, T/C (compound 3.16 µM): 11.1% [middle of 5 runs]; viability, T/C (compound 10 µM): 5.66% [middle of 5 runs]; IC50 (curve of compound): 918 nM [middle of 5 runs]
CC(=O)OC12COC1CC(O)C1(C)C(=O)C(O)C3=C(C)C(OC(=O)C(O)C(NC(=O)OC(C)(C)C)c4ccccc4)CC(O)(C(OC(=O)c4ccccc4)C21)C3(C)C (centres undefined) + COc1cc2nc(C)nc(NC(C)c3cc(N)cc(C(F)(F)F)c3)c2cc1OC1CCOC1	< 10	< 10	< 10	< 10	< 10	41.1	41.4	44.9	41.9	42.6	39.5	36	34.5	36.9	35.5	47.8	49.6	47.3	48	36.1	viability, T/C [6]: 37.4%; viability, T/C [12]: 38.2%; viability, T/C [18]: 35.8%; viability, T/C [24]: 33.5%; viability, T/C [25]: 31.4%; viability, T/C [26]: 32%; viability, T/C [27]: 31.7%; viability, T/C [28]: 32.7%; viability, T/C [29]: 33.3%; viability, T/C [30]: 31.2%; viability, T/C [31]: 29.1%; viability, T/C [32]: 30%; viability, T/C [33]: 32.7%; viability, T/C [34]: 36.2%; viability, T/C [35]: 32.2%
